Measurements published in patent US12698474B2, “B-cell cultivation method” (priority 2017, dated 2026).

Test system: B-cells obtained from a rabbit immunized with human serum albumin (HSA)
Experiment: Co-cultivation of single deposited B-cells with EL-4 B5 feeder cells, detection of antigen-specific (anti-HSA) IgG by ELISA;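 for HSA+ wells [% IgG+]: relative ranking scale running from o (lowest) to +++++ (highest)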;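 for HSA+ wells [% total]: relative ranking scale running from o (lowest) to +++++ (highest)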
Assay type: cell-based
Method: In more detail, NZW rabbits, 12-16 weeks old, were immunized with 400 μg recombinant human serum albumin protein (HSA; CAS RN 70024-90-7; Sigma), emulsified with complete Freund's adjuvant, at day 0 by intradermal application, followed by 200 μg HSA emulsified with complete or incomplete Freund's adjuvant at weeks 1, 2, 6, 10 and 23, by alternating intramuscular and subcutaneous injections.
Generally, antibodies produced by single deposited and co-cultivated B-cells or from B-cells obtained from an immunized experimental animal can be characterized with respect to specific antigen binding. The ELISA was performed at room temperature and the ELISA-solution was incubated between the individual steps on a shaker at 20×g. In the first step the antigen was bound to the wells of a 96-well multi well plate. If the antigen was a protein it had been diluted in coating buffer and applied directly to the plate. Peptide antigens were bound via the specific binding pair biotin/streptavidin. The wells of the multi well plate can be already coated with soluble CroteinC (CrC) by the manufacturer. If not, the wells were incubated after the immobilization of the antigen with 200 μl blocking buffer. After the incubation with 100 μl antigen solution per well (pre-coated multi well plate) or 200 μl blocking buffer, respectively, non-bound antigen or blocking buffer was removed by washing with wash buffer. The diluted B-cell supernatants were added in a volume of 100 μl per well and incubated. After the incubation the wells were washed. Afterwards the detection antibody was added in a volume of 100 μl per well. The antibody can be either conjugated to horseradish peroxidase or labeled with biotin. The detection antibody was determined with a streptavidin-horseradish peroxidase conjugate. After the incubation the multi well plate was washed and afterwards 50 μl of a substrate solution containing 3,3′,5,5′ tetramethyl benzidine (TMB) were added per well and incubated for a period as given in Table X. The enzymatic reaction was stopped by the addition of 50 μl sulfuric acid and the optical density was determined at 450 nm and 680 nm with a photometer (Rainbow Thermo ELISA Reader) and the Xread plus-software.
Specifically, the assay was performed at room temperature (RT) on 384-well Maxisorp microtiter plates (Thermo Scientific) with PBS (phosphate buffered saline) buffer supplemented with 0.5% Gelatine and 0.025% Tween V-20. The plates were coated with 0.5 μg/ml of human serum albumin (HSA, Sigma-Aldrich) for at least 2 hours to overnight. After washing (3×) with PBST (PBS with 0.1% Tween®-20) buffer the wells were blocked with PBS with 0.5% Gelatine and 0.1% Tween®-20. Again, the plates were washed 3× and afterwards dilutions of B-cell supernatants were added. After an incubation of 60 min and 3 washing steps with PBST a 1:4000 dilution of a HRP-conjugated anti-rabbit IgG antibody (Amersham) was transferred to the wells and incubated for 60 min. Finally, the plates were repeatedly washed (6×) with PBST and developed with BM Blue® HRP substrate solution for 30 min. Absorbance was measured at 392-405 nm.
Single cell sorted B-cells were cultured in 96-well plates with 200 μl/well EL-4 B5 medium with Pansorbin Cells (SAC) (Calbiochem (Merck), Darmstadt, Deutschland), EL-4 B5 cells (5×10^4/well) and rabbit thymocyte supernatant (TSN) or cytokine mix (CM) with PMA, respectively, for 7 days at 37° C. in an atmosphere of 5% CO2 in the incubator. B-cell culture supernatants were removed for screening and the cells harvested immediately for variable region gene cloning or frozen at −80° C. in 100 μl RLT buffer (Qiagen, Hilden, Germany).

CCCCCCCCCCCCCC(=O)O[C@@H]1[C@@H](C)[C@@]2(O)[C@@H](C=C(CO)C[C@]3(O)C(=O)C(C)=C[C@@H]23)[C@@H]2C(C)(C)[C@]12OC(C)=O [PMA, (1aR,1bS,4aR,7aS,7bS,8R,9R,9aS)-9a-(acetyloxy)-4a,7b-dihydroxy-3-(hydroxymethyl)-1,1,6,8-tetramethyl-5-oxo-1a,1b,4,4a,5,7a,7b,8,9,9a-decahydro-H-cyclopropa[3,4]benzo[1,2-e]azulen-9-yl myristate]
HSA+ wells [% IgG+] (PMA 0.002 ng/ml, 0.1×CM): ++
HSA+ wells [% total] (PMA 0.002 ng/ml, 0.1×CM): +
HSA+ wells [% IgG+] (PMA 0.011 ng/ml, 0.032×CM): +++++
HSA+ wells [% total] (PMA 0.011 ng/ml, 0.032×CM): +++
HSA+ wells [% IgG+] (PMA 0.011 ng/ml, 0.1×CM): +++++
HSA+ wells [% total] (PMA 0.011 ng/ml, 0.1×CM): +++
HSA+ wells [% IgG+] (PMA 0.054 ng/ml, 0.1×CM): +++
HSA+ wells [% total] (PMA 0.054 ng/ml, 0.1×CM): +++
Number of anti-HSA antibody positive wells [% of IgG positive wells] (PMA 0.095 ng/ml, CM 1x): 62.5 % of IgG positive wells
Number of anti-HSA antibody positive wells [% of total] (PMA 0.095 ng/ml, CM 1x): 23.8 % of total
HSA+ wells [% IgG+] (PMA 0.127 ng/ml, 0.032×CM): ++
HSA+ wells [% IgG+] (PMA 0.127 ng/ml, 0.1×CM): ++
HSA+ wells [% total] (PMA 0.127 ng/ml, 0.1×CM): +
HSA+ wells [% IgG+] (PMA 0.225 ng/ml, 0.1×CM): ++++
HSA+ wells [% total] (PMA 0.225 ng/ml, 0.1×CM): +++++
HSA+ wells [% IgG+] (PMA 0.3 ng/ml, 0.032×CM): +++
HSA+ wells [% total] (PMA 0.3 ng/ml, 0.032×CM): ++++
Number of anti-HSA antibody positive wells [% of IgG positive wells] (PMA 0.3 ng/ml, CM 0.01x): 41.4 % of IgG positive wells
Number of anti-HSA antibody positive wells [% of total] (PMA 0.3 ng/ml, CM 0.01x): 28.6 % of total
Number of anti-HSA antibody positive wells [% of IgG positive wells] (PMA 0.3 ng/ml, CM 0.032x): 39.0 % of IgG positive wells
Number of anti-HSA antibody positive wells [% of total] (PMA 0.3 ng/ml, CM 0.032x): 27.4 % of total
Number of anti-HSA antibody positive wells [% of IgG positive wells] (PMA 0.3 ng/ml, CM 0.1x): 42.1 % of IgG positive wells
Number of anti-HSA antibody positive wells [% of total] (PMA 0.3 ng/ml, CM 0.1x): 28.6 % of total
Number of anti-HSA antibody positive wells [% of IgG positive wells] (PMA 0.3 ng/ml, CM 0.32x): 39.6 % of IgG positive wells
Number of anti-HSA antibody positive wells [% of total] (PMA 0.3 ng/ml, CM 0.32x): 22.6 % of total
Number of anti-HSA antibody positive wells [% of IgG positive wells] (PMA 0.3 ng/ml, CM 1x): 20.0 % of IgG positive wells
Number of anti-HSA antibody positive wells [% of total] (PMA 0.3 ng/ml, CM 1x): 3.6 % of total
HSA+ wells [% IgG+] (PMA 0.534 ng/ml, 0.032×CM): +++
HSA+ wells [% total] (PMA 0.534 ng/ml, 0.032×CM): ++
HSA+ wells [% IgG+] (PMA 0.534 ng/ml, 0.1×CM): +++
HSA+ wells [% total] (PMA 0.534 ng/ml, 0.1×CM): +++
HSA+ wells [% IgG+] (PMA 0.535 ng/ml, without CM): +++++
HSA+ wells [% total] (PMA 0.535 ng/ml, without CM): +
HSA+ wells [% total] (PMA 0.712 ng/ml, 0.032×CM): +
HSA+ wells [% IgG+] (PMA 0.712 ng/ml, 0.1×CM): ++++
HSA+ wells [% total] (PMA 0.712 ng/ml, 0.1×CM): +++
HSA+ wells [% IgG+] (PMA 0.949 ng/ml, 0.032×CM): +++
HSA+ wells [% total] (PMA 0.949 ng/ml, 0.032×CM): +++++
HSA+ wells [% IgG+] (PMA 0.949 ng/ml, 0.1×CM): +
Number of anti-HSA antibody positive wells [% of IgG positive wells] (PMA 0.95 ng/ml, CM 0x): 66.7 % of IgG positive wells
Number of anti-HSA antibody positive wells [% of total] (PMA 0.95 ng/ml, CM 0x): 19.0 % of total
Number of anti-HSA antibody positive wells [% of IgG positive wells] (PMA 0.95 ng/ml, CM 0.01x): 39.7 % of IgG positive wells
Number of anti-HSA antibody positive wells [% of total] (PMA 0.95 ng/ml, CM 0.01x): 27.4 % of total
Number of anti-HSA antibody positive wells [% of IgG positive wells] (PMA 0.95 ng/ml, CM 0.032x): 45.6 % of IgG positive wells
Number of anti-HSA antibody positive wells [% of total] (PMA 0.95 ng/ml, CM 0.032x): 31.0 % of total
Number of anti-HSA antibody positive wells [% of IgG positive wells] (PMA 0.95 ng/ml, CM 0.1x): 54.8 % of IgG positive wells
Number of anti-HSA antibody positive wells [% of total] (PMA 0.95 ng/ml, CM 0.1x): 27.4 % of total
Number of anti-HSA antibody positive wells [% of IgG positive wells] (PMA 0.95 ng/ml, CM 0.32x): 30.0 % of IgG positive wells
Number of anti-HSA antibody positive wells [% of total] (PMA 0.95 ng/ml, CM 0.32x): 7.1 % of total
Number of anti-HSA antibody positive wells [% of IgG positive wells] (PMA 0.95 ng/ml, CM 1x): 42.9 % of IgG positive wells
Number of anti-HSA antibody positive wells [% of total] (PMA 0.95 ng/ml, CM 1x): 3.6 % of total
HSA+ wells [% IgG+] (PMA 0.95 ng/ml, without CM): +++
HSA+ wells [% IgG+] (PMA 1.266 ng/ml, 0.032×CM): ++++
HSA+ wells [% total] (PMA 1.266 ng/ml, 0.032×CM): +++++
HSA+ wells [% IgG+] (PMA 1.688 ng/ml, 0.032×CM): +
HSA+ wells [% total] (PMA 1.688 ng/ml, 0.032×CM): +++++
HSA+ wells [% IgG+] (PMA 1.688 ng/ml, without CM): +++++
HSA+ wells [% total] (PMA 1.688 ng/ml, without CM): +++++
HSA+ wells [% total] (PMA 2.25 ng/ml, 0.032×CM): ++
HSA+ wells [% IgG+] (PMA 2.251 ng/ml, without CM): +++
HSA+ wells [% total] (PMA 2.251 ng/ml, without CM): +++++
Number of anti-HSA antibody positive wells [% of IgG positive wells] (PMA 3 ng/ml, CM 0.01x): 48.3 % of IgG positive wells
Number of anti-HSA antibody positive wells [% of total] (PMA 3 ng/ml, CM 0.01x): 33.3 % of total
Number of anti-HSA antibody positive wells [% of IgG positive wells] (PMA 3 ng/ml, CM 0.032x): 47.5 % of IgG positive wells
Number of anti-HSA antibody positive wells [% of total] (PMA 3 ng/ml, CM 0.032x): 34.5 % of total
Number of anti-HSA antibody positive wells [% of IgG positive wells] (PMA 3 ng/ml, CM 0.1x): 20.0 % of IgG positive wells
Number of anti-HSA antibody positive wells [% of total] (PMA 3 ng/ml, CM 0.1x): 7.1 % of total
Number of anti-HSA antibody positive wells [% of IgG positive wells] (PMA 3 ng/ml, CM 0.32x): 27.3 % of IgG positive wells
Number of anti-HSA antibody positive wells [% of total] (PMA 3 ng/ml, CM 0.32x): 3.6 % of total
Number of anti-HSA antibody positive wells [% of IgG positive wells] (PMA 3 ng/ml, CM 1x): 45.5 % of IgG positive wells
Number of anti-HSA antibody positive wells [% of total] (PMA 3 ng/ml, CM 1x): 6.0 % of total
HSA+ wells [% total] (PMA 3.999 ng/ml, without CM): +
HSA+ wells [% IgG+] (PMA 5.331 ng/ml, without CM): ++
HSA+ wells [% total] (PMA 5.331 ng/ml, without CM): +++
HSA+ wells [% IgG+] (PMA 7.106 ng/ml, without CM): +
HSA+ wells [% total] (PMA 7.106 ng/ml, without CM): ++++
